In publication PMC3486708 (Journal of medicinal chemistry, 2012):

How the values were obtained:
MC65 cells [1] = test: Toxicity to MC65 cells in the presence of tetracycline; format: cell-based; conditions: median toxic concentration to MC65 cells, presence of TC
ABCA1 = ABCA1 gene expression in Huh-7 cells; format: cell-based, human; conditions: 24 h, compared to mock-treated cells
MC65 cells [2] = test: MC65 cell protection assay; format: cell-based; conditions: for protection of MC65 cell death (in words): MC65 cells, absence of TC

Cc1cc2c(c(=O)o1)C=C1CC[C@H](C(C)CNCc3ccc(O)c4ccccc34)C[C@@H]1O2 (stereo partly shown) [Compound 4a]
TD50 (MC65 cells [1]): 13.7 ± 0.704 µM
expression of ABCA1 (ABCA1): significantly increased

Cc1cc2c(c(=O)o1)C=C1CC[C@H](C(C)CNCc3ccc(O)cc3)C[C@@H]1O2 (mixture of isomers) [Compound 2b, (5aS,7S)-3-Methyl-7-[(1R) and (1S)1-(4-hydroxybenzylamino)propan-2-yl]-1H,7H-5a,6,8,9-tetrahydro-1-oxopyrano[4,3-b][1]benzopyran]
TD50 (MC65 cells [1]): 49.3 ± 0.127 µM
expression of ABCA1 (ABCA1): significantly increased

Cc1cc2c(c(=O)o1)C=C1CC[C@H](C(C)Cn3cnc(N)c4ncnc3-4)C[C@@H]1O2 (stereo partly shown) [Compound 1]
TD50 (MC65 cells [1]): 39.0 ± 1.12 µM
expression of ABCA1 (ABCA1): significantly increased

Cc1cc2c(c(=O)o1)C=C1CC[C@H](C(C)CNCc3ccc(CO)cc3)C[C@@H]1O2 (stereo partly shown) [Compound 2e]
TD50 (MC65 cells [1]): >50 µM

Cc1cc2c(c(=O)o1)C=C1CC[C@H](C(C)CNCc3ccc(O)c(F)c3)C[C@@H]1O2 (stereo partly shown) [Compound 3f]
TD50 (MC65 cells [1]): >50 µM

Cc1cc2c(c(=O)o1)C=C1CC[C@H](C(C)CNC(=O)c3ccccc3O)C[C@@H]1O2 (stereo partly shown) [Compound 6b]
protection of MC65 cell death (in words) (MC65 cells [2]): poor activity

Cc1cc2c(c(=O)o1)C=C1CC[C@H](C(C)CNCc3ccc(C#N)cc3)C[C@@H]1O2 (stereo partly shown) [Compound 2i]
protection of MC65 cell death (in words) (MC65 cells [2]): abolishes the activity

CC(=O)Oc1ccccc1C(=O)NCC(C)[C@H]1CCC2=Cc3c(cc(C)oc3=O)O[C@H]2C1 (stereo partly shown) [Compound 6a]
protection of MC65 cell death (in words) (MC65 cells [2]): inactive

CCCCCCCCCCC(C)(C)C(=O)Nc1c(OC)cc(OC)cc1OC [CI-976, reference compound]
protection of MC65 cell death (MC65 cells [2]; up to 50 μM): inactive
expression of ABCA1 (ABCA1): significantly increased
